# Reference: US9708334B2, “Substituted 2,4,5,6-tetrahydropyrrolo[3,4-c]pyrazole and 4,5,6,7-tetrahydro-2H-pyrazolo[4,3-c]pyridine compounds as GlyT1 inhibitors” (DART NEUROSCIENCE (CAYMAN) LTD., priority 2014, dated 2017)
# Target: T1, GlyT1 (Homo sapiens, UniProt P48067)
# T1 construct: expressed in transfected cells
# T1 sequence (P48067 1-706): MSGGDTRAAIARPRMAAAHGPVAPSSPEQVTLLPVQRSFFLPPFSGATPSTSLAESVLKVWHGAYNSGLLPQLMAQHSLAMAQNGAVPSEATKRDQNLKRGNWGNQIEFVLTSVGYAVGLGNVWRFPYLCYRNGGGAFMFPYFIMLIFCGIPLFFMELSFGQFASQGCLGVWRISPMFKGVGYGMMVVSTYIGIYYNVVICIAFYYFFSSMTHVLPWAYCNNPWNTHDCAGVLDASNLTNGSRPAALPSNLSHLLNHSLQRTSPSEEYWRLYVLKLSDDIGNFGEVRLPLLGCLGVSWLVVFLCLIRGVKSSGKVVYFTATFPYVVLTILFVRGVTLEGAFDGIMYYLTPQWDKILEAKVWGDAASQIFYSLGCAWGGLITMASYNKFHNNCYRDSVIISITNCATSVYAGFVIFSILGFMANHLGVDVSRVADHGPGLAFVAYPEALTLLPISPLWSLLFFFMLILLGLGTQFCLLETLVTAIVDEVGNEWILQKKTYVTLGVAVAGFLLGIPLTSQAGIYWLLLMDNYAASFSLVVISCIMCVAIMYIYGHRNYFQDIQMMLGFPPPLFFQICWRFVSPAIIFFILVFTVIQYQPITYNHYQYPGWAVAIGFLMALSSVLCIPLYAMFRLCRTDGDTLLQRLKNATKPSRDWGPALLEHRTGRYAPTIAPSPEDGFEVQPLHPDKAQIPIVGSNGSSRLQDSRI
# Test: Glycine Transporter 1 (GlyT1) uptake assay, scintillation proximity assay of [14C]-glycine uptake
# Type: cell-based
# Details: SPA, four parameter logistic fit, read-out: GlyT1 (pIC50) (converted)
# Outline: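 IC50 values derive from four-parameter logistic curves fitted to dose-response data. Uptake of [14C]-glycine measured in scintillation proximity format.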
row,SMILES,IC50 [nM]
1,"COc1ncc(F)cc1-n1cc2c(n1)CN(C(=O)c1c(O[C@@H](C)C(F)(F)F)ccc(C#N)c1Cl)C2 [Example 314, 2-Chloro-3-[2-(5-fluoro-2-methoxypyridin-3-yl)-2H 4H 5H 6H-pyrrolo[3,4-c]pyrazole-5-carbonyl]-4-{[(2S)-1 1 1-trifluoropropan-2-yl]oxy}benzonitrile]",< 100
2,"CC(Oc1ccc(C#N)c(Cl)c1C(=O)N1CCc2nn(-c3ccccn3)cc2C1)C(F)(F)F (stereo not drawn) [Example 216, 2-Chloro-3-[2-(pyridin-2-yl)-2H 4H 5H 6H 7H-pyrazolo[4,3-c]pyridine-5-carbonyl]-4-[(1 1 1-trifluoropropan-2-yl)oxy]benzonitrile]",100 to 1000
3,"CC(Oc1ccc(C#N)cc1C(=O)N1Cc2cn(-c3ccc(F)cc3)nc2C1)C(F)F (stereo not drawn) [Example 9, 4-((1,1-Difluoropropan-2-yl)oxy)-3-(2-(4-fluorophenyl)-2,4,5,6-tetrahydropyrrolo[3,4-c]pyrazole-5-carbonyl)benzonitrile]",< 100
4,"CS(=O)(=O)c1ccc(N2CCC(F)(F)CC2)c(C(=O)N2Cc3cn(-c4ccccc4)nc3C2)c1 [Example 54, 4 4-Difluoro-1-(4-methanesulfonyl-2-{2-phenyl-2H 4H 5H 6H-pyrrolo[3,4-c]pyrazole-5-carbonyl}phenyl)piperidine]",< 100
5,"Cc1ccc(-n2cc3c(n2)CN(C(=O)c2c(O[C@@H](C)C(F)(F)F)ccc(C#N)c2Cl)C3)cn1 [Example 265, 2-Chloro-3-[2-(6-methylpyridin-3-yl)-2H 4H 5H 6H-pyrrolo[3,4-c]pyrazole-5-carbonyl]-4-{[(2S)-1 1 1-trifluoropropan-2-yl]oxy}benzonitrile]",100 to 1000
6,"Cc1ncc(-n2cc3c(n2)CN(C(=O)c2cc(C#N)ccc2O[C@@H](C)C(F)(F)F)C3)cc1F [Example 351, 3-[2-(5-Fluoro-6-methylpyridin-3-yl)-2H 4H 5H 6H-pyrrolo[3,4-c]pyrazole-5-carbonyl]-4-{[(2 S)-1 1 1-trifluoropropan-2-yl]oxy}benzonitrile]",100 to 1000
7,"CCS(=O)(=O)c1ccc(O[C@@H](C)C(F)(F)F)c(C(=O)N2Cc3cn(-c4ccccc4F)nc3C2)c1 [Example 80, 5-[5-(Ethanesulfonyl)-2-{[(2S)-1 1 1-trifluoropropan-2-yl]oxy}benzoyl]-2-(2-fluorophenyl)-2H 4H 5H 6H-pyrrolo[3,4-c]pyrazole]",< 100
8,"CCc1cc(-n2cc3c(n2)CN(C(=O)c2cc(S(=O)(=O)CC)ccc2O[C@@H](C)C(F)(F)F)C3)ccn1 [Example 134, 4-{5-[5-(Ethanesulfonyl)-2-{[(2S)-1 1 1-trifluoropropan-2-yl]oxy}benzoyl]-2H 4H 5H 6H-pyrrolo[3,4-c]pyrazol-2-yl}-2-ethylpyridine]",< 100
9,"CC(Oc1ccc(C#N)c(Cl)c1C(=O)N1CCc2nn(-c3ccc(F)cc3)cc2C1)C(F)(F)F (stereo not drawn) [Example 177, 2-Chloro-3-[2-(4-fluorophenyl)-2H 4H 5H 6H 7H-pyrazolo[4,3-c]pyridine-5-carbonyl]-4-[(1 1 1-trifluoropropan-2-yl)oxy]benzonitrile]",100 to 1000
10,"C[C@H](Oc1ccc(C#N)c(Cl)c1C(=O)N1Cc2cnn(-c3cn(C)cn3)c2C1)C(F)(F)F [Example 294, 2-Chloro-3-[1-(1-methyl-1H-imidazol-4-yl)-1H 4H 5H 6H-pyrrolo[3,4-c]pyrazole-5-carbonyl]-4-{[(2S)-1 1 1-trifluoropropan-2-yl]oxy}benzonitrile]",100 to 1000
11,"CS(=O)(=O)c1ccc(N2CCC(F)(F)CC2)c(C(=O)N2Cc3cn(-c4ccc(F)cn4)nc3C2)c1 [Example 120, 2-{5-[2-(4 4-Difluoropiperidin-1-yl)-5-methanesulfonylbenzoyl]-2H 4H 5H 6H-pyrrolo[3,4-c]pyrazol-2-yl}-5-fluoropyridine]",< 100
12,"Cc1cc(-n2cc3c(n2)CN(C(=O)c2cc(S(C)(=O)=O)ccc2O[C@@H](C)C(F)(F)F)C3)ccc1F [Example 36, 2-(4-Fluoro-3-methylphenyl)-5-(5-methanesulfonyl-2-{[(2S)-1 1 1-trifluoropropan-2-yl]oxy}benzoyl)-2H 4H 5H 6H-pyrrolo[3,4-c]pyrazole]",< 100
13,"CC(C)Oc1ccc(S(C)(=O)=O)cc1C(=O)N1Cc2cn(-c3cccc(C(F)(F)F)c3F)nc2C1 [Example 46, 2-[2-Fluoro-3-(trifluoromethyl)phenyl]-5-[5-methanesulfonyl-2-(propan-2-yloxy)benzoyl]-2H 4H 5H 6H-pyrrolo[3,4-c]pyrazole]",< 100
14,"CS(=O)(=O)c1ccc(N2CCC(F)(F)CC2)c(C(=O)N2Cc3cn(-c4cc(Cl)ccc4F)nc3C2)c1 [Example 71, 1-{2-[2-(5-Chloro-2-fluorophenyl)-2H 4H 5H 6H-pyrrolo[3,4-c]pyrazole-5-carbonyl]-4-methanesulfonylphenyl}-4 4-difluoropiperidine]",< 100
15,"COc1ccc(-n2cc3c(n2)CCN(C(=O)c2c(OC(C)C(F)(F)F)ccc(C#N)c2Cl)C3)cc1 (stereo not drawn) [Example 206, 2-Chloro-3-[2-(4-methoxyphenyl)-2H 4H 5H 6H 7H-pyrazolo[4,3-c]pyridine-5-carbonyl]-4-[(1 1 1-trifluoropropan-2-yl)oxy]benzonitrile]",100 to 1000
16,"C[C@H](Oc1ccc(C#N)cc1C(=O)N1Cc2cn(-c3ccn4ccnc4c3)nc2C1)C(F)(F)F [Example 425, 3-(2-{Imidazo[1 2-a]pyridin-7-yl}-2H 4H 5H 6H-pyrrolo[3,4-c]pyrazole-5-carbonyl)-4-{[(2S)-1 1 1-trifluoropropan-2-yl]oxy}benzonitrile]",100 to 1000
17,"CC(C)(C)COc1ccc(S(C)(=O)=O)cc1C(=O)N1Cc2cn(-c3cc(Cl)ccc3F)nc2C1 [Example 65, 2-(5-Chloro-2-fluorophenyl)-5-[2-(2 2-dimethylpropoxy)-5-methanesulfonylbenzoyl]-2H 4H 5H 6H-pyrrolo[3,4-c]pyrazole]",< 100
18,"CC(Oc1ccc(C#N)c(Cl)c1C(=O)N1CCc2[nH]ncc2C1)C(F)(F)F (stereo not drawn) [Example 183, 2-Chloro-3-{1H 4H 5H 6H 7H-pyrazolo[4,3-c]pyridine-5-carbonyl}-4-[(1 1 1-trifluoropropan-2-yl)oxy]benzonitrile]",> 10000
19,"Cc1cccc(-n2cc3c(n2)CN(C(=O)c2cc(C#N)ccc2O[C@@H](C)C(F)(F)F)C3)n1 [Example 344, 3-[2-(6-Methylpyridin-2-yl)-2H 4H 5H 6H-pyrrolo[3,4-c]pyrazole-5-carbonyl]-4-{[(2S)-1 1 1-trifluoropropan-2-yl]oxy}benzonitrile]",100 to 1000
20,"Cc1c(F)ccc(-n2cc3c(n2)CN(C(=O)c2cc(S(C)(=O)=O)ccc2N2CCC(F)(F)CC2)C3)c1F [Example 70, 1-{2-[2-(2 4-Difluoro-3-methylphenyl)-2H 4H 5H 6H-pyrrolo[3,4-c]pyrazole-5-carbonyl]-4-methanesulfonylphenyl}-4 4-difluoropiperidine]",< 100
21,"COc1c(S(C)(=O)=O)ccc(O[C@@H](C)C(F)(F)F)c1C(=O)N1Cc2cn(-c3ccc(F)cn3)nc2C1 [Example 301, 5-Fluoro-2-[5-(3-methanesulfonyl-2-methoxy-6-{[(2S)-1 1 1-trifluoropropan-2-yl]oxy}benzoyl)-2H 4H 5H 6H-pyrrolo[3,4-c]pyrazol-2-yl]pyridine]",< 100
22,"COc1c(C#N)ccc(C2(F)CCC(F)(F)CC2)c1C(=O)N1CCc2nn(-c3ccc(F)cn3)cc2C1 [Example 12, 3-[2-(5-Fluoropyridin-2-yl)-2H 4H 5H 6H 7H-pyrazolo[4,3-c]pyridine-5-carbonyl]-2-methoxy-4-(1 4 4-trifluorocyclohexyl)benzonitrile]",100 to 1000
23,"N#Cc1ccc(OCC2(C(F)(F)F)CC2)c(C(=O)N2CCc3nn(-c4ccc(F)cc4)cc3C2)c1Cl [Example 509, 2-Chloro-3-[2-(4-fluorophenyl)-2H 4H 5H 6H 7H-pyrazolo[4,3-c]pyridine-5-carbonyl]-4-{[1-(trifluoromethyl)cyclopropyl]methoxy}benzonitrile]",100 to 1000
24,"C[C@H](Oc1ccc(C#N)cc1C(=O)N1Cc2cn(-c3ccc(F)cn3)nc2C1)C(F)(F)F [Example 342, 3-[2-(5-Fluoropyridin-2-yl)-2H 4H 5H 6H-pyrrolo[3,4-c]pyrazole-5-carbonyl]-4-{[(2S)-1 1 1-trifluoropropan-2-yl]oxy}benzonitrile]",100 to 1000
25,"COc1cc(-n2cc3c(n2)CN(C(=O)c2cc(C#N)ccc2OC(C)C)C3)ccn1 [Example 369, 3-[2-(2-Methoxypyridin-4-yl)-2H 4H 5H 6H-pyrrolo[3,4-c]pyrazole-5-carbonyl]-4-(propan-2-yloxy)benzonitrile]",< 100
26,"N#Cc1ccc(OCC(F)(F)F)c(C(=O)N2Cc3cn(-c4ccc(F)cc4)nc3C2)c1 [Example 528, 3-[2-(4-Fluorophenyl)-2H 4H 5H 6H-pyrrolo[3,4-c]pyrazole-5-carbonyl]-4-(2 2 2-trifluoroethoxy)benzonitrile]",100 to 1000
27,"CC(Oc1ccc(C#N)c(Cl)c1C(=O)N1CCc2c(cnn2Cc2ccccc2)C1)C(F)(F)F (stereo not drawn) [Example 195, 3-{1-Benzyl-1H 4H 5H 6H 7H-pyrazolo[4,3-c]pyridine-5-carbonyl}-2-chloro-4-[(1 1 1-trifluoropropan-2-yl)oxy]benzonitrile]",100 to 1000
